The test system of experiment [1] is Cloudman S91 melanoma cells. The experiment is described as follows: Melanin formation in melanoma cells with and without α-MSH (indirect measure of TMP penetration). The note with it: for OD450 nm (melanin content of lysate): 5 days. It is filed as cell-based. Here is the method:
Cloudman S91 melanoma cells (ATCC CCL-53.1) are cultivated to confluence in DMEM+10% FCS in 24-well culture dishes. The S91 cells (0.5 ml per culture) are incubated for 5 days with and without TMP and with 15 nM α-MSH and then harvested. The TMP/TMP-L is added at least 2 hours before the α-MSH. For determination of the melanin, the medium is discarded and the adhering cells are washed 1× with PBS. The cells are then lysed with 0.1 ml of 0.2 M NaOH and the melanin content of the lysate is measured at 450 nm. The cultures of the experimental series are made up in duplicate, the 2nd batch being used to determine the cell count by the MTT test (Mosmann T., J. of Immun. Methods 1983, 65, 55-63). The cell count indicates growth inhibiting effects and the melanin content is given relative to the cell count (OD450 nm/10^6 cells).

Experiment [2] relates to smooth muscle cells. Kind of experiment: Penetration of carrier-conjugated peptides into smooth muscle cells; immunofluorescence of α-SM-actin polymerization. It is filed as cell-based, Wistar rats. Particulars: 1 mg/ml in cell culture solution, 1 hour after treatment. Here is the method: Smooth muscle cells are isolated by enzymatic cleavage from the thoracic aorta of 6-week-old Wistar rats. 10,000 cells are placed on 60 mm Petri dishes and allowed to grow for 5-6 h in DME and 10% foetal calf serum. The cells are incubated with the peptides for approximately 1 hour in the incubator, then washed twice with PBS (0.5 mmol CaCl2, 3 mmol MgCl2), then fixed with 3% parafornaldehyde for 10 min and permeabilized with 0.1% Triton X-100 in PBS for 1 minute, double-immunofluorescent stained for α-SM-actin and total actin with mouse anti-α-SM 1 and rabbit polyclonal anti-actin antibody, respectively, followed by staining with sheep anti-mouse IgG conjugated with tetramethylrhodamine B isothiocyanate or fluorescent isothiocyanate and sheep anti-rabbit IgG conjugated with fluorescent isothiocyanate, respectively. The preparations are washed with PBS and fixed in polyvinyl alcohol buffer. Photographs are taken with a Zeiss Axiophot light microscope using a fluorescein or rhodamine filter:
FIGS. 1-6 show the immunofluorescence photographs of the inhibition of polymerization 1 hour after treatment of the cell cultures with the substances, the concentration of the cell culture solution being 1 mg/ml.

Experiment [3] relates to smooth muscle cells. The experiment is described as above. It is filed as cell-based, Wistar rats. Particulars: c=0.5 mg, 1 mg and 2 mg per ml of cell culture solution.
For experiment [4], the system named is α-smooth muscle actin. Particulars: microinjected into cells; cited from earlier work.
Experiment [5] deals with HaCaT cells. Kind of experiment: Penetration of carrier-conjugated peptides into keratinocytes; fluorescein-streptavidin staining, confocal microscopy. The note with it: 4 hours incubation, 25 μM. The format is cell-based. Here is the method: Approx. 5×10^5 HaCaT cells (a gift from Dr. N. E. Fusenig, Deutsches Krebsforschungszentrum Heidelberg) are inoculated into 60 mm culture dishes from a confluent culture (DMEM+5% FCS) and allowed to grow for about 12 hours. The cell cultures are incubated for 4 hours with 25 μM Ac-Leu-Gly-Asp[NH(CH2)5—NH—CO-biotin]-Lys(ε-D,L-6,8-dithiooctanamide)-NH—CH2—CH2—NH-octanoylamide and the cells are washed (2× with FCS-free DMEM) and fixed for 5 min at −20° C. with EtOH/acetic acid (95/5). They are washed three times with PBS and then bound to fluorescein-labelled streptavidin (1000×diluted in PBS+10% FCS). Prior to microscopy the cells were washed a further three times with PBS and dried. Photographs were taken with a confocal scanning laser microscope (Sarastro 2000, Molecular Dynamics) at an excitation wavelength of 488 nm using a 510 nm emission filter.

Where [6] appears, read: S91, 30 nM substance plus 15 nM α-MSH.
The mark [7] stands for this setting: S91, 30 nM substance, without α-MSH, untreated control about the same.

Numbered stars: 1 amine (or outer) side, 2 acyl side, 3 side chain; on linkers, the order of the positions; unused ones are H or OH. Ends that are not written are not given here. Ethylenediamine = C(CN[*:2])N[*:1]

As for `CCCCCCCC(=O)NNCCNC(=O)C(N)CCCCNC(=O)CCCCC1CCSS1` [free transporter, H-Lys(ε-D,L-6,8-dithiooctanamide)-NH—CH2CH2—NH—NH-octanoylamide], the “OD450 nm (melanin content of lysate)” value in experiment [1] (setting [6]) is “approximately 0.7”; in experiment [1] (setting [7]) it was “approximately 0.2”.

Turning to “Ac-Glu-Glu-Glu-Asp-Lys(E-D,L-6,8-dithiooctanoylamide)-NH—CH2—CH2—NH-hexadecanoylamide (Ac-EEEDK(D,L‑6,8‑dithiooctanoyl)-{Ethylenediamine-hexadecanoyl})”, in experiment [2], the “fluorescein staining (left picture)” value is listed as “slight”, the “penetration of the peptide into the cell” value is reported as “good penetration”, the “polymerization of the smooth α-actin filaments” value is listed as “very poorly developed” and the “rhodamine staining of the smooth muscle α-actin polymers (right picture)” value (from here on “rhodamine staining”) is on record as “slight”.

Turning to “Ac-Glu-Glu-Glu-Asp-Lys(ε-D,L-6,8-dithiooctanoylamide)-NH2 (Ac-EEEDK(D,L‑6,8‑dithiooctanoyl)-NH2)”, in experiment [2], the “fluorescein staining (left picture)” value is on record as “partial”, the “penetration of the peptide into the cell” value is listed as “penetration”, the “polymerization of the smooth α-actin filaments” value was “partially developed” and the “rhodamine staining” value is listed as “partial”.

On to “Ac-Glu-Glu-Glu-Asp-Lys(ε-D,L-6,8-dithiooctanoylamide)-NH—CH2—CH2—NH—C═O—(CH2)6—CH3 (Ac-EEEDK(D,L‑6,8‑dithiooctanoyl)-{Ethylenediamine-octanoyl})”, for which, in experiment [2], the “fluorescein staining (left picture)” value was “slight”, the “penetration of the peptide into the cell” value was “best penetration”, the “polymerization of the smooth α-actin filaments” value is “very poorly developed” and the “rhodamine staining” value is “slight”. Moreover, the dose-effect relationship result in experiment [3] is on record as “qualitative dose-effect relationship”.

For the compound “Ac-Glu-Glu-Glu-Asp-Lys-NH—CH2—CH2—NH-hexadecanoylamide (Ac-EEEDK-{Ethylenediamine-hexadecanoyl}) [reference compound]”, in experiment [2], the “fluorescein staining (left picture)” value is “strong”, the “penetration of the peptide into the cell” value is on record as “no penetration”, the “polymerization of the smooth α-actin filaments” value is on record as “completely developed” and the “rhodamine staining” value was “strong”.

Consider “Ac-Glu-Glu-Glu-Asp-Lys-NH—CH2—CH2—NH—C═O—(CH2)6—CH3 (Ac-EEEDK-{Ethylenediamine-octanoyl}) [reference compound]”, for which, in experiment [2], the “fluorescein staining (left picture)” value is “strong”, the “penetration of the peptide into the cell” value was “no penetration”, the “polymerization of the smooth α-actin filaments” value was “completely developed” and the “rhodamine staining” value is “strong”.

“Ac-Glu-Glu-Glu-Asp-NH2 (Ac-EEED-NH2) [reference compound]”: in experiment [2], the “fluorescein staining (left picture)” value is reported as “strong”, the “penetration of the peptide into the cell” value is “no penetration”, the “polymerization of the smooth α-actin filaments” value is recorded as “completely developed” and the “rhodamine staining” value is reported as “strong”. For the same compound, the “polymerization of α-smooth muscle actin after microinjection in excess” value in experiment [4] is “inhibits”.

As for “Ac-Leu-Gly-Asp[NH(CH2)5—NH—CO-biotin]-Lys(ε-D,L-6,8-dithio-octanamide)-NH—CH2CH2—NH-octanoylamide [Batch d]”, the “fluorescent staining of cells” value in experiment [5] was “attractive fluorescent staining”.

On to “Ac-Leu-Gly-Asp[NH(CH2)5—NH—CO-biotin]-OH [Ac-Leu-Gly-Asp-OH]”, for which the “fluorescent staining of cells” value in experiment [5] is on record as “no fluorescent staining”.

With “EDYHSLYNSHL [free TMP, reference compound]”, the “OD450 nm (melanin content of lysate)” value was “approximately 0.7” in experiment [1] (setting [6]) and “approximately 0.2” in experiment [1] (setting [7]).

With “H-Glu-Asp-Tyr-His-Ser-Leu-Tyr-Asn-Ser-His-Leu-Lys(ε-D,L-6,8-dithiooctanamide)-NH—CH2CH2—NH-octanylamide (H-EDYHSLYNSHLK-{Ethylenediamine-octanoyl}; not fully specified (residue 12)) [transporter-bound TMP]”, the “OD450 nm (melanin content of lysate)” value in experiment [1] (setting [6]) and in experiment [1] (setting [7]) was “approximately 0.2” each time. For the same compound, the “effect on melanin formation induced by α-MSH” value in experiment [1] (S91 treated with α-MSH combined with transporter-bound TMP) was “prevention of melanin formation”.

On to “α-MSH: stimulant of melanin formation added to S91 cells at 15 nM (Ac-SYSMEHFRWGKPV-NH2; ends and bridges not checked; UniProt P01189 138-150, looked up) [reference compound]”, for which the “OD450 nm (melanin content of lysate)” value in experiment [1] (S91, 15 nM α-MSH alone) is given as “approximately 0.7”.

Values taken from US20020035243A1, “Transport system conjugates” (priority 1998, published 2002).
